Experiment [1] is described as follows: Superquenching of MS-PPE by AQS, flow cytometry. The conditions noted are these: 10 μM AQS, 2.5×10^5 MS-PPE in 200 μL PBS. The method, then:
Bead suspensions of 2.5×10^5 PPE-coated microspheres in 200 μL PBS were analyzed using a FACScan flow cytometer (Becton-Dickinson, Sunnyvale, Calif.) with excitation at 488 nm. Fluorescence signals were acquired on the FL-1 channel (525 nm) using log amplification and analyzed with the CellQuest software.
The effect of the quencher, AQS, on the fluorescence of MS-PPE was determined by adding different concentrations of AQS and immediately reading the fluorescence by flow cytometry (FIG. 14A) or by fluorimetry (FIG. 14B). Adding AQS to the suspension of MS-PPE decreased the fluorescence emission intensity in an AQS-concentration-dependent manner (FIGS. 14A and B). The quenching of the MS-PPE as detected by both fluorimetry and flow cytometry, could be described by a conventional Stern-Volmer equation: Io/I=1+KSV[Q] where Io and I represent the fluorescence intensities in the absence and in presence of the AQS, and KSV is the Stern-Volmer quenching constant. However, the fluorimeter was not sensitive enough to detect the lower fluorescence (higher quenching) when AQS was added to MS-PPE at concentrations higher than 5 μM. The values of KSV obtained by flow cytometry and fluorimetry were 0.78×10^6 M^−1, and 0.79×10^6 M^−1, respectively. The correlation coefficient for the more sensitive flow cytometry was higher than that obtained by fluorimetry. […]
On the technique in general: A flow cytometer gives signals particle by particle.

Experiment [2] has as its system DMPG lipid bilayer supported on MS-PPE. Kind of experiment: Superquenching flow cytometric assay for disruption of DMPG lipid bilayer supported on MS-PPE. To be noted: 10 μM AQS, no disruptor, real-time kinetics. Type of experiment: biochemical. The method, then: Lipid bilayers were disrupted by adding TRITON X-100 detergent to the bead suspension to a final concentration of 0.25% (w/v).
Bead suspensions of 2.5×10^5 DMPG-coated MS-PPE in 200 μL of PBS were analyzed using a FACScan flow cytometer (Becton-Dickinson, Sunnyvale, Calif.) with excitation at 488 nm. Fluorescence signals were acquired on FL-1 channel (525 nm) using log amplification and analyzed with the CellQuest software. Kinetic analysis of disruption of supported lipid bilayer by melittin was performed by acquiring real-time data with continuous mixing of samples (10^6 MS-PPE in 800 μl of PBS) using a magnetic stirrer. The raw data were analyzed using IDL Query software developed by Bruce Edwards (Cancer Center, University of New Mexico, Albuquerque, N. Mex.).
Because an anionic lipid was used to form a lipid bilayer around MS-PPE, it was expected that MLT will disrupt the DMPG lipid bilayer by such a detergent-like action. This was tested by adding 10 μM AQS to DMPG-coated MS-PPE followed by treatment with one of the following: TRITON X-100 detergent, synthetic MLT (sMLT), or natural MLT (nMLT) and immediately reading the fluorescence by flow cytometry. […] These histograms resemble the ones reported previously for MS-PPE, without a lipid coating, in absence and in presence of AQS.
From FIG. 18, the association constant (corresponding to the reciprocal of the point of half saturation) for nMLT and sMLT with DMPG were 5×10^6 M^−1 and 1.7×10^6 M^−1, respectively. […] Lower concentrations of nMLT, in comparison to sMLT, were required to disrupt the DMPG lipid bilayer. This might be attributed to the fact that nMLT contains some phospholipase A2 (PLA2) as a contaminant. PLA2 has a high affinity for anionic phospholipids, with an association constant of 0.5×10^10 M^−1 (Kim et al., Anal. Chem. 250, 109-116 (1997)), which is about 3000 fold higher than that of MLT. Although PLA2 activity requires calcium, which is not present in the experimental system, it has been reported that even upon addition of EDTA to natural MLT, PLA2 maintains its activity, probably due to formation of a tight complex with calcium with PLA2 (Dempsey, C. E. Biochim. Biophys. Acta 1990, 1031, 143-161).
The kinetics of disruption of supported lipid bilayer by MLT were monitored by measuring real-time changes in fluorescence intensity by flow cytometry (FIG. 19). Suspensions of 10^6 DMPG-coated MS-PPE in 800 μL of PBS were treated with AQS at a final concentration of 10 μM, then with either sMLT, TRITON X-100 detergent, or no treatment. […] Treatment with sMLT in the absence of AQS led to an increase in normalized fluorescence (FIG. 19, trace A). This can be attributed to disruption of the lipid bilayer by sMLT, and is consistent with a reversal of the slight quenching of fluorescence caused by the formation of a DMPG lipid bilayer over MS-PPE. Addition of AQS alone to DMPG-coated MS-PPE (FIG. 19, trace C) led to a 20% reduction in fluorescence as reported earlier. Addition of TRITON X-100 detergent to DMPG-coated MS-PPE after the addition of AQS (first dip in trace E, FIG. 19) caused immediate decrease in fluorescence to ˜10% of its original value (second dip in trace E, FIG. 19). In contrast, addition of sMLT, after the addition of AQS, (FIG. 19, trace D) led to a gradual reduction of fluorescence intensity to ˜20% of the original value. Although MLT forms dimers at high concentrations (Dempsey, C. E. Biochim. Biophys. Acta 1990, 1031, 143-161), it is monomeric at the concentrations used in this study. On the other hand, TRITON X-100 detergent forms micelles at the concentration used in this study.

The test system of experiment [3] is anionic phospholipids. The experiment is described as follows: Affinity of PLA2 for anionic phospholipids (Kim et al.). Type of experiment: binding.
In experiment [4] the test system is anionic phospholipids. The conditions noted are these: Kim et al. 1997; cited from earlier work.
Experiment [5] concerns cholesterol (10%, molar ratio) containing lipid membrane on porous particles. Kind of experiment: Release of dye from porous particles coated with cholesterol-containing lipid membrane by streptolysin-O. To be noted: even at low concentrations; 25° C. and 37° C. Type of experiment: biochemical. The procedure: FIGS. 22A-B illustrate one aspect of the invention—drug and/or dye release from the present lipid-coated particles. FIG. 22A is a graph showing release of dye from porous particles (containing dye inside) where the particles are coated with a cholesterol (10%, molar ratio) containing lipid membrane. As increasing amounts of streptolysin-O are added (solid square symbols represent lower concentration than solid ovals), more dye is released. […] FIG. 22B illustrates how streptolysin-O can disrupt cholesterol-containing lipid bilayer membranes, leading to release of materials (e.g., drugs or antibiotics) enclosed within the membrane. Streptolysin-O is an anti-microbial protein that preferably binds to cholesterol and can disrupt cholesterol-containing membranes.

Regarding `O=C1c2ccc(S(=O)(=O)O)cc2C(=O)c2ccc(S(=O)(=O)O)cc21` [AQS, 9,10-anthraquinone-2,6-disulfonic acid], in experiment [1], the “reduction in fluorescence (normalized mean channel fluorescence)” value worked out at 90%. For the same molecule, the “reduction in fluorescence of DMPG-coated MS-PPE on addition of AQS alone” value in experiment [2] came to 20%.
With “PLA2: phospholipase A2, lipolytic enzyme, contaminant of natural melittin”, the “association constant higher than that of MLT” value with anionic phospholipids [3] is “about 3000 fold”. Moreover, the association constant in the experiment on anionic phospholipids [4] was 5e+09 M⁻¹.
“streptolysin-O: anti-microbial protein that preferably binds to cholesterol and can disrupt cholesterol-containing membranes”: the “release of dye compared with control without streptolysin-O” value in experiment [5] is listed as “greater than observed for control”.

The values above are taken from US8465983B1, “Detection and delivery systems utilizing supported lipid bilayers” (priority 2005, dated 2013).
